Results published in BindingDB's records for PubMed 10688601 (Virginia Commonwealth University, 2000).

How the values were obtained:
Cannabinoid receptor 2 [1] = biological target: Cannabinoid receptor 2 (Mus musculus, UniProt P47936)
Cannabinoid receptor 2 [2] = biological target: Cannabinoid receptor 2 (Homo sapiens, UniProt P34972)
Cannabinoid receptor 2 [3] = biological target: T1, Cannabinoid receptor 2 (Rattus norvegicus, UniProt Q9QZN9)
T1 sequence (Q9QZN9 whole entry): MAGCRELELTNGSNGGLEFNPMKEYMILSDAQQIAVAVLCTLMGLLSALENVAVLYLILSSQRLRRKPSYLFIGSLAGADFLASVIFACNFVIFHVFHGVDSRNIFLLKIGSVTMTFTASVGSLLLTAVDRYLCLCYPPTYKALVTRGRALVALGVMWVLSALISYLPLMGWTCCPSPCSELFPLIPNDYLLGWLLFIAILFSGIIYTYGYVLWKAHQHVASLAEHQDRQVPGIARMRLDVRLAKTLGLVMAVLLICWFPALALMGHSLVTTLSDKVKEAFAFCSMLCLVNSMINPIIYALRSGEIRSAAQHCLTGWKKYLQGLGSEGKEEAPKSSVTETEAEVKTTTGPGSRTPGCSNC

Cannabinoid receptor 2 (Mus musculus, UniProt P47936), sequence (P47936 whole entry): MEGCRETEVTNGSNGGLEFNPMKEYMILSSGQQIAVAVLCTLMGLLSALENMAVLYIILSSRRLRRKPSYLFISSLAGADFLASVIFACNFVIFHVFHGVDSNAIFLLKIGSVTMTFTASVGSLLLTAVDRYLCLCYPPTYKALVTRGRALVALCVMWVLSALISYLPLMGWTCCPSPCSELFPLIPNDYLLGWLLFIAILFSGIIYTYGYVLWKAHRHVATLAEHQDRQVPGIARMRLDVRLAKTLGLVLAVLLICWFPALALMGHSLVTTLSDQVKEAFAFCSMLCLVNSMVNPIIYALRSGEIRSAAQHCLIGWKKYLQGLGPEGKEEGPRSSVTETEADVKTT
Cannabinoid receptor 2 (Homo sapiens, UniProt P34972), sequence (P34972 whole entry): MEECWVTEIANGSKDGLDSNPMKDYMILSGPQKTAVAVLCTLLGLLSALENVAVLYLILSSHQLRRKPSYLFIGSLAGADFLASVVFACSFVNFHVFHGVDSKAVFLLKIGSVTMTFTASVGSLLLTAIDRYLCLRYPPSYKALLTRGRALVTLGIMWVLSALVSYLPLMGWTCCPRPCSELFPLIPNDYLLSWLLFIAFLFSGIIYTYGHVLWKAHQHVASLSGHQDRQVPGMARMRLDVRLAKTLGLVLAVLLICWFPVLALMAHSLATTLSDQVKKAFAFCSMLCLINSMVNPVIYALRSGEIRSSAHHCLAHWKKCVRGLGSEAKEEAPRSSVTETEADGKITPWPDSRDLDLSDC

Cc1c(C(=O)c2cccc3ccccc23)c2cccc3c2n1[C@H](CN1CCOCC1)CO3 [WIN55212-2] was tested, and the Ki (Cannabinoid receptor 2 [1]) was 9.46 nM.

CCCCCCC(C)(C)c1ccc2c(c1)OC(C)(C)[C@@H]1CC=C(CO)C[C@@H]21 [JWH-051] gave a Ki (Cannabinoid receptor 2 [2]) of 0.33 nM, a Ki (Cannabinoid receptor 2 [3]) of 3.16 nM and a Ki (Cannabinoid receptor 2 [1]) of 0.72 nM.

For CCCCC/C=C\C/C=C\C/C=C\C/C=C\CCCC(=O)NCCO [Arachidonoyl ethanolamide], the Ki (Cannabinoid receptor 2 [1]) was 1480 nM.

In the case of CCCCCCC(C)(C)c1ccc([C@H]2C[C@@H](O)CC[C@@H]2CCCO)c(O)c1 [CP-56667 [(+)-AC],XV], the Ki (Cannabinoid receptor 2 [3]) is reported as 0.64 nM and the Ki (Cannabinoid receptor 2 [1]) is reported as 0.73 nM.

CCCn1c(C)c(C(=O)c2cccc3ccccc23)c2ccccc21 was tested, and the Ki (Cannabinoid receptor 2 [3]) was 269 nM and the Ki (Cannabinoid receptor 2 [1]) was 431 nM.

CCCCCc1cc(O)c2c(c1)OC(C)(C)[C@@H]1CCC(C)=CC21 (stereo not given in full) [Tetrahydrocannabinol] showed a Ki (Cannabinoid receptor 2 [1]) of 27.3 nM.
